Test results as given in patent US11807625B2, “Capsid inhibitors for the prevention of HIV” (Gilead Sciences, Inc., priority 2019, dated 2023).
Where two headings read alike, the source gives them in different places.

Assay: PK of compound of Formula (Ia) after single intramuscular dose of solution formulations in Wistar Han rats
Assay type: in vivo
Conditions: for Plasma concentration: 0 h; for Plasma concentration / concentration at 48 h / concentration at 1 h / concentration at 24 h / concentration at 72 h / concentration at 96 h / concentration at 168 h / concentration at 3 h / concentration at 8 h: IM 100 mg/kg; for concentration at 48 h / concentration at 1 h / concentration at 24 h / concentration at 72 h / concentration at 96 h / concentration at 168 h / AUC(0-t) / concentration at 3 h / concentration at 8 h: Wistar Han, rat, plasma, 100 mg/kg; for concentration at 48 h / concentration at 1 h / concentration at 24 h / concentration at 72 h / concentration at 96 h / concentration at 168 h / concentration at 3 h / concentration at 8 h: intramuscular; for AUC(0-t): im, single IM 100 mg/kg, male Wistar Han rats, mean ± SD
Protocol: Formulations containing the compound of Formula (Ia), or a pharmaceutically acceptable salt thereof, were prepared as solutions and optionally administered subcutaneously or intramuscularly to rats, rabbits, and/or dogs.
A solution of about 400 mg/ml of the compound of Formula (Ia) having 21.13 w/w % water, 45.25 w/w % PEG 300, and 33.61 w/w % of a sodium salt of a compound of Formula (Ia) was prepared. The solution was administered intramuscularly to Wistar Han rats at a dose of about 100 mg/kg and beagle dogs at a dose of about 30 mg/kg.
A solution of about 400 mg/ml of the compound of Formula (Ia) having 19.18 w/w % water, 41.09 w/w % PEG 300, 33.61 w/w % of a sodium salt of a compound of Formula (Ia), and 6.12 w/w % poloxamer 188 was prepared. The solution was administered intramuscularly to Wistar Han rats at a dose of about 100 mg/kg and beagle dogs at a dose of about 30 mg/kg.
(§1) A solution of about 500 mg/ml of the compound of Formula (Ia) having 16.93 w/w % water, 36.22 w/w % PEG 300, 41.85 w/w % of a sodium salt of a compound of Formula (Ia), and 5.00% ethanol was prepared. The solution was administered intramuscularly to Wistar Han rats at a dose of about 100 mg/kg and beagle dogs at a dose of about 30 mg/kg.
as §1, with “14.50” for “16.93”, “31.04” for “36.22”, “(Ia), 5.00% ethanol,” for “(Ia),”, “7.61 w/w % poloxamer 188” for “5.00% ethanol”

[1] = Solution H (~400 mg/mL), Wistar Han rats, mean, n = 4, read-out: Plasma concentration, Mean
[2] = Solution K (~500 mg/mL, ethanol), Wistar Han rats, individual animals #1-#4, read-out: Plasma concentration
[3] = Solution K (~500 mg/mL, ethanol), Wistar Han rats, mean, n = 4, read-out: Plasma concentration, Mean
[4] = male, individual rats, solution M, 500 mg/mL, read-out: Plasma concentration
[5] = male, mean, n = 4 rats, solution M, 500 mg/mL, read-out: Plasma concentration
[6] = male, Solution H (~400 mg/mL), Wistar Han rats, mean, n = 4, read-out: Plasma concentration, Mean
[7] = male, Solution J (~400 mg/mL, poloxamer 188), Wistar Han rats, individual animals #1-#4, read-out: Plasma concentration
[8] = male, Solution J (~400 mg/mL, poloxamer 188), Wistar Han rats, mean, n = 4, read-out: Plasma concentration, Mean
[9] = male, Solution K (~500 mg/mL, ethanol), Wistar Han rats, individual animals #1-#4, read-out: Plasma concentration
[10] = male, Solution K (~500 mg/mL, ethanol), Wistar Han rats, mean, n = 4, read-out: Plasma concentration, Mean

Q: With CC(C)(C#Cc1ccc(-c2ccc(Cl)c3c(NS(C)(=O)=O)nn(CC(F)(F)F)c23)c([C@H](Cc2cc(F)cc(F)c2)NC(=O)Cn2nc(C(F)(F)F)c3c2C(F)(F)[C@@H]2C[C@H]32)n1)S(C)(=O)=O [compound of Formula (Ia)] as the compound, how does the Plasma concentration (individual rats, solution M, 500 mg/mL) read?
A: BLQ

Q: What about the Plasma concentration (Solution H (~400 mg/mL), Wistar Han rats, individual animals #1-#4) of the same compound?
A: BLQ

Q: And the Plasma concentration (Solution J (~400 mg/mL, poloxamer 188), Wistar Han rats, individual animals #1-#4)?
A: BLQ

Q: What about the Plasma concentration (Solution K (~500 mg/mL, ethanol), Wistar Han rats, individual animals #1-#4) of the same compound?
A: BLQ

Q: What about the concentration at 48 h (Solution H (~400 mg/mL), Wistar Han rats, individual animals #1-#4, read-out: Plasma concentration) of the same compound?
A: 354 nM

Q: And the concentration at 1 h [1]?
A: 150 nM

Q: What about the concentration at 24 h [1] of the same compound?
A: 439 nM

Q: What about the concentration at 48 h [1] of the same compound?
A: 471 nM

Q: What about the concentration at 72 h [1] of the same compound?
A: 397 nM

Q: What about the concentration at 96 h [1] of the same compound?
A: 477 nM

Q: What about the concentration at 168 h [1] of the same compound?
A: 588 nM

Q: And the concentration at 72 h [2]?
A: 516 nM

Q: And the concentration at 96 h [2]?
A: 537 nM

Q: And the concentration at 168 h [2]?
A: 640 nM

Q: And the concentration at 1 h [3]?
A: 146 nM

Q: And the concentration at 72 h [3]?
A: 433 nM

Q: And the concentration at 96 h [3]?
A: 401 nM

Q: What about the concentration at 168 h [3] of the same compound?
A: 507 nM

Q: And the AUC(0-t) (male, Solution H (~400 mg/mL; Na salt, water, PEG 300), n = 4, read-out: AUC0-24h)?
A: 7.59 ± 2.93 µM·h

Q: What about the AUC(0-t) (male, Solution H (~400 mg/mL; Na salt, water, PEG 300), n = 4, read-out: AUC0-168h) of the same compound?
A: 77.7 ± 26.1 µM·h

Q: And the AUC(0-t) (male, Solution J (~400 mg/mL; Na salt, water, PEG 300, poloxamer 188), n = 4, read-out: AUC0-24h)?
A: 12.1 ± 1.9 µM·h

Q: What about the AUC(0-t) (male, Solution J (~400 mg/mL; Na salt, water, PEG 300, poloxamer 188), n = 4, read-out: AUC0-168h) of the same compound?
A: 82.5 ± 8.7 µM·h

Q: And the AUC(0-t) (male, Solution K (~500 mg/mL; Na salt, water, PEG 300, ethanol), n = 4, read-out: AUC0-24h)?
A: 6.13 ± 1.7 µM·h

Q: What about the AUC(0-t) (male, Solution K (~500 mg/mL; Na salt, water, PEG 300, ethanol), n = 4, read-out: AUC0-168h) of the same compound?
A: 67.4 ± 15.7 µM·h

Q: And the AUC(0-t) (male, Solution M (~500 mg/mL; Na salt, water, PEG 300, ethanol, poloxamer 188), n = 4, read-out: AUC0-24h)?
A: 13.4 ± 2.4 µM·h

Q: And the AUC(0-t) (male, Solution M (~500 mg/mL; Na salt, water, PEG 300, ethanol, poloxamer 188), n = 4, read-out: AUC0-168h)?
A: 92.9 ± 9.6 µM·h

Q: What about the concentration at 1 h [4] of the same compound?
A: 177 nM

Q: What about the concentration at 1 h [5] of the same compound?
A: 184 nM

Q: What about the concentration at 3 h [4] of the same compound?
A: 304 nM

Q: What about the concentration at 3 h [5] of the same compound?
A: 405 nM

Q: What about the concentration at 8 h [4] of the same compound?
A: 443 nM

Q: And the concentration at 8 h [5]?
A: 544 nM

Q: And the concentration at 24 h [4]?
A: 737 nM

Q: And the concentration at 24 h [5]?
A: 750 nM

Q: What about the concentration at 48 h [4] of the same compound?
A: 623 nM

Q: And the concentration at 48 h [5]?
A: 622 nM

Q: And the concentration at 72 h [5]?
A: 426 nM

Q: And the concentration at 96 h [4]?
A: 593 nM

Q: What about the concentration at 96 h [5] of the same compound?
A: 526 nM

Q: And the concentration at 168 h [4]?
A: 504 nM

Q: And the concentration at 168 h [5]?
A: 560 nM

Q: What about the concentration at 3 h (male, Solution H (~400 mg/mL), Wistar Han rats, individual animals #1-#4, read-out: Plasma concentration) of the same compound?
A: 179 nM

Q: And the concentration at 3 h [6]?
A: 245 nM

Q: And the concentration at 8 h [6]?
A: 285 nM

Q: What about the concentration at 3 h [7] of the same compound?
A: 463 nM

Q: And the concentration at 8 h [7]?
A: 510 nM

Q: And the concentration at 24 h [7]?
A: 761 nM

Q: What about the concentration at 48 h [7] of the same compound?
A: 716 nM

Q: What about the concentration at 72 h [7] of the same compound?
A: 526 nM

Q: And the concentration at 96 h [7]?
A: 506 nM

Q: And the concentration at 168 h [7]?
A: 481 nM

Q: And the concentration at 1 h [8]?
A: 249 nM

Q: What about the concentration at 3 h [8] of the same compound?
A: 445 nM

Q: And the concentration at 8 h [8]?
A: 507 nM

Q: And the concentration at 24 h [8]?
A: 605 nM

Q: And the concentration at 48 h [8]?
A: 558 nM

Q: What about the concentration at 72 h [8] of the same compound?
A: 452 nM

Q: And the concentration at 96 h [8]?
A: 461 nM

Q: And the concentration at 168 h [8]?
A: 467 nM

Q: What about the concentration at 24 h [9] of the same compound?
A: 438 nM

Q: And the concentration at 48 h [9]?
A: 439 nM

Q: And the concentration at 3 h [10]?
A: 209 nM

Q: What about the concentration at 8 h [10] of the same compound?
A: 218 nM

Q: And the concentration at 24 h [10]?
A: 361 nM

Q: What about the concentration at 48 h [10] of the same compound?
A: 376 nM
